Laboratory results taken from patent US11339124B2, “3-(benzylamino)-4-(cyclohexylamino)-n-(2-(piperazin-1-yl)ethyl)benzenesulfonamide derivatives and related ferrostatin-1 analogues as cell death inhibitors for treating e.g. stroke” (VIB VZW, priority 2018, dated 2022).

Assays:
[1] = Plasma stability, mouse plasma; type: in vitro ADME; conditions: 37° C., remaining parent compound, read-out: Plasma stability (% recovery after 6 h), Mouse
Method: (§1) 5 μl of a 10 mM stock solution of the compound in DMSO was added to 995 μl of plasma to obtain a 50 μM final solution. The mixture was gently shaken for 6 h at 37° C. Aliquots of 100 μl were taken at various time points (0, 0.5 h, 1 h, 2 h, 3 h and 6 h) and diluted with 400 μl of cold methanol (stored at 4° C.). The suspension was centrifuged at 14000 rpm for 5 min. 50 μl of the supernatant was diluted with 950 μl of methanol and analysed with LC/MS/MS. The samples were analysed in triplicate. The experiment was done in duplicate. […] Enalapril maleate was used as a control in mice, rats, and in human.

[2] = Kinetic solubility (turbidimetric method); type: physicochemical; conditions: 10 mM PBS pH 7.4, 2% DMSO, test range 3.125-200 μM, 2 h at 37° C.
Method: A turbidimetric method was used. First a series of DMSO compound stock solutions was prepared ([…]). An aliquot of 4 μL stock solution was added to 196 μL PBS buffer (pH 7.4). A series of concentrations were prepared (3.13-200 μM), including a blank on a microtiter plate. (2% DMSO-D6) The microtiter plate was shaken for 10 seconds and incubated for 2 hours at 37° C. When there was no turbidity measured at a given concentration the sample was assumed to be dissolved.

[3] = Plasma stability, rat plasma; type: in vitro ADME; conditions: 37° C., remaining parent compound, read-out: Plasma stability (% recovery after 6 h), Rat
Method: as §1

[4] = Microsomal (metabolic) stability, mouse liver microsomes; conditions: liver microsomes, pH 7.4
Source text: (§2) By using the measured microsomal in vitro t1/2, a calculated value for the intrinsic clearance Clint can be determined. This value states the measure in which a drug that is not bound to plasma proteins is irreversibly removed from the body by the liver. This value is expressed in mL/min/kg which can be interpreted as the volume of blood in mL that is cleared of a drug per minute per kilogram of body weight. The CLint is less sensitive to used variables in ADME assays since the amount of microsomal protein and the volume of the incubation are all taken into account. (Sohlenius-Sternbeck et al., Xenobiotica, 2012, 42, 841-853)
(§3) Liver microsomes (20 mg protein/ml), NADPH regenerating system solutions A & B and 5 mM stock compound solution (100% DMSO) are prepared. The reaction mixture finally contains 713 μL purified water, 200 μL 0.5 M potassium phosphate pH 7.4, 50 μL NADPH regenerating system solution A (BD Biosciences Cat. No. 451220), 10 μL NADPH regenerating system solution B (BD Biosciences Cat. No. 451200) and 2 μL of the compound stock solution (10 μM final concentration). The reaction mixture is warmed to 37° C. for 5 minutes in a water bath and the reaction is initiated by addition of 25 μL of liver microsomes (0.5 mg protein/ml final concentration). At different time points (0 min-15 min-30 min-60 min-120 min-240 min-360 min-24 h), 20 μL is withdrawn and 80 μL cold acetonitrile is added on ice for 10 minutes. Then the mixtures are centrifuged at 13 000 rpm for 5 min at 4° C. The supernatant is further diluted in 90% water/MeCN (1/25) to fall within the range of the LC/MS/MS analysis. At each time point, the compound is analysed using LC/MS/MS with the same UPLC system as described above. A standard curve of six points was made to fit the measured concentrations. Verapamil was used as a positive control.
(§4) All obtained readouts were processed using Microsoft Excel. In order to determine the microsomal half-life t1/2 of the compounds, the rate constant k was determined by plotting the exponential decay graphs using GraFit. Microsomal t1/2 was determined using the following formula: […]

[5] = Microsomal (metabolic) stability, rat liver microsomes; conditions: rat, liver microsomes
Source text: as §2, §3, §4

[6] = test system: IMR-32 Neuroblastoma cells; assay: Erastin-induced ferroptosis in IMR-32 neuroblastoma cells (Sytox Green cell death readout); type: cell-based; conditions: Homo sapiens; IMR-32 cells, 10 μM erastin, compounds 1 nM to 1 μM, triplicate; read-out: IC50, antiferroptotic activity in response to erastin-induced ferroptosis
Method: In the present invention the potency of a compound inhibiting (or reducing) ferroptosis and/or oxytosis are determined in in vitro or in vivo assays. Typically in vitro assays are used to measure the potency of a candidate compound. Examples of suitable in vitro assays are cellular assays. One non-limiting example of an assay involves the use of the IMR-32 neuroblastoma cell line. The latter is stimulated to enter into ferroptosis upon stimulation with 10 μM erastin, a documented ferroptosis inducer (see for example Dixon et al (2012) Cell 149, 1060-1072 and ferroptosis inhibitors are evaluated for the prevention of erastin induced ferroptosis. Yet another assay is based the glutamate-induced cell death in the hippocampal cell line HT22 and ferroptosis/oxytosis inhibitors are evaluated for the prevention of cell death (see Henke N. et al (2013) Cell Death and Disease 4, e470). Still another assay is based on the sorafinib induced cell death (described to be iron dependent cell death) in hepatocellular carcinoma cells and ferroptosis inhibitors are evaluated for the prevention of cell death (see Louandre C. et al (2013) Int. J. Cancer 133, 1732). The calculated potency of a compound inhibiting ferroptosis and/or oxytosis is typically depicted as an IC50 value. Examples of suitable in vivo assays are typically pre-clinical disease models of for example mice for the diseases benefiting the application of ferroptosis and/or oxytosis inhibitors, as described herein. One non-limiting example of an in vivo assay is based on inducing liver damage in mice by administering the herbicide diquat dibromide monohydrate and ferroptosis inhibitors are evaluated based on reduced levels of liver transaminases in serum (see Ran Q et al (2004) J. Biol. Chem. 279, 53, 55137).
The IC50 values for the individual compounds of the invention were determined in the neuroblastoma, IMR-32 cell line. In brief, IMR-32 cells were subjected to 10 μM erastin, the latter compound is known to induce ferroptosis. A concentration gradient (ranging from 1 nM to 1 μM) of the compounds was applied to the cells. These experiments were performed in a 96-well format (in triplicate), and cell death was analyzed in a fluorescent plate reader by use of a fluorescent cell death dye (1.5 μM Sytox Green). The IC50 values depicted in Table 1 are the concentration values for the individual compounds which are able to overcome ferroptosis.

[7] = Microsomal (metabolic) stability, human liver microsomes; conditions: human, liver microsomes
Source text: as §2, §3, §4

[8] = Plasma stability, human plasma; type: in vitro ADME; conditions: 37° C., remaining parent compound, read-out: Plasma stability (% recovery after 6 h), Human
Method: as §1

In the case of O=S(=O)(NCCN1CCOCC1)c1ccc(NC2CCCCC2)c(NCc2ccccc2)c1 [Compound 35, 3-(benzylamino)-4-(cyclohexylamino)-N-(2-morpholinoethyl)benzenesulfonamide], the recovery at 6 h, 50 μM [1] is reported as 100%, the “Solubility (kinetic)” value [2] is reported as 50 to 100 µM and the recovery at 6 h, 50 μM [3] is reported as 100%. The CLint scaled at 10 µM [4] was 1220 ± 48 mL/min/kg, the half-life at 10 µM [4] was 3.06 ± 0.12 min and the CLint scaled at 10 µM ([5]; pH 7.4) was 326 ± 13.2 mL/min/kg. It also gave a half-life at 10 µM ([5]; pH 7.4, Microsomal stability (t1/2), rat liver microsomes, 0.5 mg protein/ml, 10 μM compound, 37° C.) of 10.4 ± 0.42 min, an IC50 [6] of 24 nM and a CLint scaled at 10 µM ([7]; pH 7.4) of 22.6 ± 8.1 mL/min/kg. For the same compound, the half-life at 10 µM ([7]; pH 7.4, Microsomal stability (t1/2), human liver microsomes, 0.5 mg protein/ml, 10 μM compound, 37° C.) was 58.8 ± 21 min and the recovery at 6 h, 50 μM [8] was 100%.
